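Compound exposure: 48 hours, 5 concentrations, 96-well plates. At the GI50, growth is halved.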 Calls of active or inactive are those of the source. No stated cut-off is given here; in the data, active = GI50 up to about 1.1 µM and inactive = higher.
Legend:
Experiment in all cases: DTP human tumour cell line panel, 48 h
[1] = system: 786-0
[2] = system: A498
[3] = system: A549
[4] = system: ACHN
[5] = system: BT-549
[6] = system: CAKI-1
[7] = system: CCRF-CEM
[8] = system: COLO 205
[9] = system: DU-145
[10] = system: EKVX
[11] = system: HCT-116
[12] = system: HCT-15
[13] = system: HL-60
[14] = system: HOP-62
[15] = system: HOP-92
[16] = system: HT-29
[17] = system: Hs-578T
[18] = system: IGROV-1
[19] = system: K562
[20] = system: KM12
[21] = system: LOX IMVI
[22] = system: M14
[23] = system: MCF7
[24] = system: MDA-MB-231
[25] = system: MDA-MB-435
[26] = system: MDA-N
[27] = system: MOLT-4
[28] = system: Malme-3M
[29] = system: NCI-H226
[30] = system: NCI-H23
[31] = system: NCI-H460
[32] = system: NCI-H522
[33] = system: NCI/ADR-RES
[34] = system: OVCAR-3
[35] = system: OVCAR-4
[36] = system: OVCAR-5
[37] = system: OVCAR-8
[38] = system: PC-3
[39] = system: RPMI-8226
[40] = system: RXF 393
[41] = system: SF-268
[42] = system: SF-295
[43] = system: SF-539
[44] = system: SK-MEL-28
[45] = system: SK-MEL-2
[46] = system: SK-MEL-5
[47] = system: SK-OV-3
[48] = system: SN12C
[49] = system: SNB-19
[50] = system: SNB-75
[51] = system: SR
[52] = system: SW-620
[53] = system: T47D
[54] = system: TK-10
[55] = system: U-251
[56] = system: UACC-257
[57] = system: UACC-62
[58] = system: UO-31
[59] = system: HCC 2998

SMILES: CNc1ncnc(Sc2nc(N)nc3[nH]cnc23)c1[N+](=O)[O-]
- GI50 [1]: 0.583 µM (active)
- GI50 [2]: 17.9 µM (inactive)
- GI50 [3]: 3.08 µM (inactive)
- GI50 [4]: 2.84 µM (inactive)
- GI50 [5]: 2.6 µM (inactive)
- GI50 [6]: 0.582 µM (active)
- GI50 [7]: 0.084 µM (active)
- GI50 [8]: 2.13 µM (inactive)
- GI50 [9]: 0.356 µM (active)
- GI50 [10]: 3.08 µM (inactive)
- GI50 [11]: 0.39 µM (active)
- GI50 [12]: 1.54 µM
- GI50 [13]: 1.91 µM (inactive)
- GI50 [14]: 0.675 µM (active)
- GI50 [15]: 0.52 µM (active)
- GI50 [16]: 1.09 µM (active)
- GI50 [17]: 3.24 µM (inactive)
- GI50 [18]: 3.85 µM (inactive)
- GI50 [19]: 0.33 µM (active)
- GI50 [20]: 2.64 µM (inactive)
- GI50 [21]: 0.189 µM (active)
- GI50 [22]: 0.448 µM (active)
- GI50 [23]: 0.735 µM (active)
- GI50 [24]: 1.73 µM (inactive)
- GI50 [25]: 0.48 µM (active)
- GI50 [26]: 0.552 µM (active)
- GI50 [27]: 0.409 µM (active)
- GI50 [28]: 1.46 µM (inactive)
- GI50 [29]: 5.7 µM (inactive)
- GI50 [30]: 1.21 µM (inactive)
- GI50 [31]: 0.552 µM (active)
- GI50 [32]: 0.635 µM (active)
- GI50 [33]: 0.427 µM (active)
- GI50 [34]: 0.75 µM (active)
- GI50 [35]: 1.46 µM (inactive)
- GI50 [36]: 2.25 µM (inactive)
- GI50 [37]: 0.622 µM (active)
- GI50 [38]: 4.23 µM (inactive)
- GI50 [39]: 0.15 µM (active)
- GI50 [40]: 0.45 µM (active)
- GI50 [41]: 0.566 µM (active)
- GI50 [42]: 0.971 µM (active)
- GI50 [43]: 5.09 µM (inactive)
- GI50 [44]: 8.2 µM (inactive)
- GI50 [45]: 0.634 µM (active)
- GI50 [46]: 2.9 µM (inactive)
- GI50 [47]: 0.547 µM (active)
- GI50 [48]: 0.933 µM (active)
- GI50 [49]: 35.6 µM (inactive)
- GI50 [50]: 0.406 µM (active)
- GI50 [51]: 0.1 µM (active)
- GI50 [52]: 0.94 µM (active)
- GI50 [53]: 0.995 µM (active)
- GI50 [54]: 0.251 µM (active)
- GI50 [55]: 4.42 µM (inactive)
- GI50 [56]: 1.54 µM (inactive)
- GI50 [57]: 0.586 µM (active)
- GI50 [58]: 0.676 µM (active)

SMILES: CC(C)Oc1cc(O)c2c(c1)OCC=C2CCC(=O)O
- GI50 [1]: 26.3 µM (inactive)
- GI50 [2]: 21.4 µM (inactive)
- GI50 [3]: 28.1 µM (inactive)
- GI50 [4]: 22.1 µM (inactive)
- GI50 [5]: 31.3 µM (inactive)
- GI50 [6]: 37.2 µM (inactive)
- GI50 [7]: 22.8 µM (inactive)
- GI50 [8]: 16.2 µM (inactive)
- GI50 [9]: 52.5 µM (inactive)
- GI50 [10]: 17.3 µM (inactive)
- GI50 [11]: 20.4 µM (inactive)
- GI50 [12]: 23.2 µM
- GI50 [13]: 20.6 µM (inactive)
- GI50 [14]: 30.5 µM (inactive)
- GI50 [15]: 20 µM (inactive)
- GI50 [16]: 19.9 µM (inactive)
- GI50 [17]: 42.2 µM (inactive)
- GI50 [18]: 35.7 µM (inactive)
- GI50 [19]: 28.4 µM (inactive)
- GI50 [20]: 31.5 µM (inactive)
- GI50 [21]: 33.1 µM (inactive)
- GI50 [22]: 25.9 µM (inactive)
- GI50 [23]: 13.9 µM (inactive)
- GI50 [24]: 36.8 µM (inactive)
- GI50 [25]: 23.8 µM (inactive)
- GI50 [26]: 21.7 µM (inactive)
- GI50 [27]: 23.8 µM (inactive)
- GI50 [29]: 15.5 µM (inactive)
- GI50 [30]: 37.2 µM (inactive)
- GI50 [31]: 33 µM (inactive)
- GI50 [32]: 21.2 µM (inactive)
- GI50 [33]: 28.4 µM (inactive)
- GI50 [34]: 41 µM (inactive)
- GI50 [35]: 39.3 µM (inactive)
- GI50 [36]: 31.8 µM (inactive)
- GI50 [37]: 36.1 µM (inactive)
- GI50 [38]: 54.6 µM (inactive)
- GI50 [39]: 24.4 µM (inactive)
- GI50 [40]: 69.5 µM (inactive)
- GI50 [41]: 40.6 µM (inactive)
- GI50 [42]: 43.5 µM (inactive)
- GI50 [44]: 36 µM (inactive)
- GI50 [45]: 26.8 µM (inactive)
- GI50 [46]: 18.4 µM (inactive)
- GI50 [47]: 49 µM (inactive)
- GI50 [48]: 21.3 µM (inactive)
- GI50 [49]: 38 µM (inactive)
- GI50 [50]: 31 µM (inactive)
- GI50 [51]: 34 µM (inactive)
- GI50 [52]: 27.8 µM (inactive)
- GI50 [53]: 39.3 µM (inactive)
- GI50 [54]: 20.3 µM (inactive)
- GI50 [55]: 67.1 µM (inactive)
- GI50 [56]: 20.2 µM (inactive)
- GI50 [57]: 26.9 µM (inactive)
- GI50 [58]: 24.1 µM (inactive)

SMILES: CCOC(=O)CNC1=NNS(=O)(=O)c2ccccc21
- GI50 [1]: > 100 µM (inactive)
- GI50 [2]: 20.8 µM (inactive)
- GI50 [3]: > 100 µM (inactive)
- GI50 [4]: > 100 µM (inactive)
- GI50 [5]: > 100 µM (inactive)
- GI50 [6]: > 100 µM (inactive)
- GI50 [7]: 59.8 µM (inactive)
- GI50 [8]: > 100 µM (inactive)
- GI50 [9]: > 100 µM (inactive)
- GI50 [10]: > 100 µM (inactive)
- GI50 [59]: > 100 µM (inactive)
- GI50 [11]: > 100 µM (inactive)
- GI50 [12]: > 100 µM
- GI50 [13]: 66.5 µM (inactive)
- GI50 [14]: > 100 µM (inactive)
- GI50 [15]: > 100 µM (inactive)
- GI50 [16]: > 100 µM (inactive)
- GI50 [17]: > 100 µM (inactive)
- GI50 [18]: > 100 µM (inactive)
- GI50 [19]: > 100 µM (inactive)
- GI50 [20]: > 100 µM (inactive)
- GI50 [21]: > 100 µM (inactive)
- GI50 [22]: > 100 µM (inactive)
- GI50 [23]: > 100 µM (inactive)
- GI50 [24]: > 100 µM (inactive)
- GI50 [25]: > 100 µM (inactive)
- GI50 [26]: > 100 µM (inactive)
- GI50 [27]: 54.1 µM (inactive)
- GI50 [28]: > 100 µM (inactive)
- GI50 [29]: > 100 µM (inactive)
- GI50 [30]: > 100 µM (inactive)
- GI50 [31]: 32.6 µM (inactive)
- GI50 [32]: > 100 µM (inactive)
- GI50 [33]: > 100 µM (inactive)
- GI50 [34]: > 100 µM (inactive)
- GI50 [35]: > 100 µM (inactive)
- GI50 [36]: > 100 µM (inactive)
- GI50 [37]: > 100 µM (inactive)
- GI50 [38]: > 100 µM (inactive)
- GI50 [39]: > 100 µM (inactive)
- GI50 [40]: > 100 µM (inactive)
- GI50 [41]: > 100 µM (inactive)
- GI50 [42]: > 100 µM (inactive)
- GI50 [43]: > 100 µM (inactive)
- GI50 [44]: > 100 µM (inactive)
- GI50 [46]: > 100 µM (inactive)
- GI50 [47]: > 100 µM (inactive)
- GI50 [48]: > 100 µM (inactive)
- GI50 [49]: > 100 µM (inactive)
- GI50 [50]: > 100 µM (inactive)
- GI50 [51]: 97.1 µM (inactive)
- GI50 [52]: > 100 µM (inactive)
- GI50 [53]: > 100 µM (inactive)
- GI50 [54]: > 100 µM (inactive)
- GI50 [55]: > 100 µM (inactive)
- GI50 [56]: > 100 µM (inactive)
- GI50 [57]: > 100 µM (inactive)
- GI50 [58]: > 100 µM (inactive)

From ChEMBL document CHEMBL1201862, “PubChem BioAssay data set” (2004)
